In publication PMC9606187, “Dual HDAC/BRD4 Inhibitors Relieves Neuropathic Pain by Attenuating Inflammatory Response in Microglia After Spared Nerve Injury” (Neurotherapeutics, 2022):

Key:
[1] = test system: model of neuropathic pain; set-up: method as in PMID 33529752; details: cited from earlier work
HDAC1 = molecular target: T1, HDAC1 (Homo sapiens, UniProt Q13547); assay: HDAC1 immunoprecipitation & activity assay on treated HCT-116 cells; type: cell-based; details: HCT-116 cells treated at 10 µM for 12 h; in comparison with SAHA
T1 construct: endogenous in cells; host or cells: HCT-116
T1 sequence (Q13547 whole entry): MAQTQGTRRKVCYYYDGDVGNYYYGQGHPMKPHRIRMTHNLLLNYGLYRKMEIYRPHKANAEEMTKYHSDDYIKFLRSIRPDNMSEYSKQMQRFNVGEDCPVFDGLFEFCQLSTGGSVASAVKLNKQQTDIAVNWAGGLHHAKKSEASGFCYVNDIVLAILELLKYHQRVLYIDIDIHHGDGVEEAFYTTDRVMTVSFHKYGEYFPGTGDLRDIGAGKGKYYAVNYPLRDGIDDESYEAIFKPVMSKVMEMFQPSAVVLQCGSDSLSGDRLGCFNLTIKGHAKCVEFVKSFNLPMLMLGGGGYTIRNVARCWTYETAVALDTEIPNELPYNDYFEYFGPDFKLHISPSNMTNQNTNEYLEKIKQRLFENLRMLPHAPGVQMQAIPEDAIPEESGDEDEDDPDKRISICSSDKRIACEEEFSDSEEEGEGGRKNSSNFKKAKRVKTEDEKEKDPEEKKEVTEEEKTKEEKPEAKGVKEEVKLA
Protocol: HDAC assay: To test the inhibition activity of compounds, the HDAC1 immunoprecipitation (IP) & Activity Assay Kit (Catalog # K342-25; Biovision) was used under the protocol provided by the kit. HCT-116 cell lines were plated in 6 wells and treated with the investigated compounds at 10 µM for 12 h. After incubation, the media was removed, and the cells were washed with PBS (EuroClone) solution (2X). Then, 200 µl/well of lysis buffer with protease inhibitor was added and the cells were scraped and incubated in ice for 30 min. After centrifugation at 10,000 g for 10 min at 4 °C, the supernatant was collected. One hundred micrograms of each extract was incubated with 6 µl of Rabbit HDAC1 antibody and Rabbit IgG and the volume was reached to 500 µl with PBS with protease inhibitors. After incubation at 4 °C overnight a rotary mixer, 25 µl of the protein-A/G bead slurry, previously washed with PBS (2X), was added to the samples and incubated for 1 h at 4 °C. The beads were recovered after 3 washes with 1 ml PBS, by centrifuging at 14,000 g for ~ 10 s and used for HDAC assay.
HDAC assay preparation: For each reaction, 168 µl reaction mix containing HDAC assay buffer and HDAC substrate was prepared, added to the sample and to background control tube, and incubated at 37 °C for 2 h. SAHA was used as a positive control. […] The fluorescence was read at Ex/Em = 380/500 nm with Tecan M1000 plate reader.

SNI mice [2] = assay: Hargreaves' plantar test, thermal allodynia in SNI mice; type: in vivo
Protocol: (§4) For i.n. administration, mice were slightly anesthetized by 2% isoflurane inhalation and placed in a supine position [30]. A 5 μl aliquot of solution (treatments or vehicle) was slowly dropped alternatively to each nostril with a micropipette tip.
Behavioral testing was performed before surgery to establish a baseline for comparison with post-surgical values.
Thermal nociceptive threshold was measured using Hargreaves’ device, as described [33]. Nociceptive response for thermal sensitivity was expressed as thermal paw withdrawal latency in seconds. All determinations were averaged for each animal.

[3] = molecular target: T2, Recombinant Human Bromodomain containing protein 4, bromodomain 2 (BRD4-BD2) (Homo sapiens, UniProt O60885); assay: AlphaScreen bromodomain binding assay (Reaction Biology), BRD4-2
T2 construct: purchased Reaction Biology (RBC) RD-11–141; host or cells: E. coli
Protocol: (§1) The reader assay is a binding assay using AlphaScreen technology […] assay and was performed by Reaction Biology (www.reactionbiology.com). The biotinylated peptide binding to the reader domain of His-tagged protein is monitored by the singlet oxygen transfer from the Streptavidin-coated donor beads to the AlphaScreen Ni-chelate acceptor beads.
(§2) Reaction buffer: 50 mM Hepes, pH7.5, 100 mM NaCl, 0.05% CHAPS, 0.1% BSA, and 1% DMSO (the final DMSO concentration may differ depending on compound stock and test concentrations).
(§3) Bromodomain: BRD4-1: RBC Cat# RD-11–140: Recombinant Human Bromodomain containing protein 4, bromodomain 1 (aa 44–170; Genbank Accession # NM_058243), expressed in E. coli with N-terminal His-tag. MW = 17.8 kDa; BRD4-2: RBC Cat# RD-11–141: Recombinant Human Bromodomain containing protein 4, bromodomain 2 (aa 349–460;Genbank Accession # NM_058243), expressed in E. coli with N-terminal His-tag. MW = 15.7 kDa. Ligand (C-term-Biotin): Histone H4 peptide (1–21) K5/8/12/16Ac-Biotin. Detection beads: PerkinElmer: Donor beads: Streptavidin-coated donor beads; Acceptor beads: AlphaScreen Ni acceptor beads.
Reaction procedure: • Deliver 2.5X BRD in wells of reaction plate except No BRD control wells. Add buffer instead. • Deliver compounds in 100% DMSO into the BRD mixture by Acoustic technology (Echo550; nanoliter range). Spin down and pre-incubation for 30 min. • Deliver 5X Ligand. Spin and shake. • Incubate for 30 min at room temperature with gentle shaking. • Deliver 5X donor beads. Spin and shake. • Deliver 5X acceptor beads. Spin and shake. Then gentle shaking in the dark for 60 min. • Alpha measurement (Ex/Em = 680/520–620 nm) in Enspire.

SNI mice [4] = assay: Mechanical allodynia (Dynamic Plantar Aesthesiometer) in SNI mice; type: in vivo
Protocol: Mice were randomly assigned to each treatment group. […] Maria Novella Romanelli, iBET762 (molibresib; (4S)-6-(4-Chlorophenyl)-N-ethyl-8-methoxy-1-methyl-4H-[1,2,4]triazolo[4,3,a][1,4] benzodiazepine-4-acetamide, and SAHA (vorinostat; suberoylanilide hydroxamic acid) (Sigma-Aldrich, Italy) were administered 15 min before the tests. Drugs were dissolved in 5% DMSO. Drug concentrations were prepared in such a way that the necessary dose could be administered in a volume of 10 µl per mouse by intranasal (i.n.) administration. The experimental protocol to test the effect of treatments on behavioral and in vitro tests included 3 control groups: untreated, vehicle (5% DMSO), and saline.
as §4
Behavioral testing was performed before surgery to establish a baseline for comparison with post-surgical values. Mono-neuropathy was induced by spared nerve injury and this model of pain in mice has been in use for several years [31]. The SNI procedure was performed as previously described [31].
Mechanical allodynia was measured by using Dynamic Plantar Aesthesiometer (Ugo Basile, Bologna, Italy), as described [32]. Nociceptive response for mechanical sensitivity was expressed as mechanical paw withdrawal threshold (PWT) in grams. PWT was quantified by an observer blinded to the treatment.

naïve mice = assay: Hot plate test, acute thermal pain in naïve mice; type: in vivo; details: 5 to 500 µM i.n.
From the text: Mice were randomly assigned to each treatment group. To evaluate the pharmacological profile of SUM35 (N-hydroxy-6-(1-methyl-6-phenyl-4H-benzo[f][1,2,4]triazolo[4,3-a][1,4]diazepin-8-yl)hex-5-ynamide), SUM52 ((S)-N-hydroxy-7-(2-(1-methyl-6-phenyl-4H-benzo[f][1,2,4]triazolo[4,3-a][1,4]diazepin-4-yl)acetamido)heptanamide) (Fig. 1F), synthesized in the laboratory of Prof. Maria Novella Romanelli, iBET762 (molibresib; (4S)-6-(4-Chlorophenyl)-N-ethyl-8-methoxy-1-methyl-4H-[1,2,4]triazolo[4,3,a][1,4] benzodiazepine-4-acetamide, and SAHA (vorinostat; suberoylanilide hydroxamic acid) (Sigma-Aldrich, Italy) were administered 15 min before the tests. Drugs were dissolved in 5% DMSO. Drug concentrations were prepared in such a way that the necessary dose could be administered in a volume of 10 µl per mouse by intranasal (i.n.) administration. The experimental protocol to test the effect of treatments on behavioral and in vitro tests included 3 control groups: untreated, vehicle (5% DMSO), and saline. A representative figure of the experimental protocol in naïve (C) and SNI (F) mice has been inserted in Supplementary Fig. 1.
For i.n. administration, mice were slightly anesthetized by 2% isoflurane inhalation and placed in a supine position. A 5 μl aliquot of solution (treatments or vehicle) was slowly dropped alternatively to each nostril with a micropipette tip.
Animals were habituated to the testing environment daily for at least 2 days before baseline testing. To evaluate onset and progression of pain hypersensitivity, neuropathic mice were monitored by measuring nociceptive responses every 30 min for 3 h before surgery or 3, 7, 10, and 14 days after nerve surgery. Experiments were performed on post-surgery day 7 and 14 when the pain hypersensitivity was well established. Each mouse served as its own control, the responses being measured both before and after surgery. All testing was performed with a blind procedure.

[5] = molecular target: T3, Recombinant Human Bromodomain containing protein 4, bromodomain 1 (BRD4-BD1) (Homo sapiens, UniProt O60885); assay: AlphaScreen bromodomain binding assay (Reaction Biology), BRD4-1; details: ligand Histone H4 peptide (1–21) K5/8/12/16Ac-Biotin; in comparison with (+)-JQ1; read-out: IC50 on BRD4-BD1
T3 construct: bromodomain 1 (aa 44–170); purchased Reaction Biology (RBC) RD-11–140; host or cells: E. coli
Protocol: as §1, §2, §3
Reaction procedure: • Deliver 2.5X BRD in wells of reaction plate except No BRD control wells. Add buffer instead. • Deliver compounds in 100% DMSO into the BRD mixture by Acoustic technology (Echo550; nanoliter range). […]

[6] = time-course comparison, combination i-BET762 10 µg, SAHA 3 µg

SMILES	time of peak of analgesic activity after administration [1] [min]	inhibition of HDAC1 enzymatic activity (HDAC1)	thermal antiallodynic activity, ipsilateral side (SNI mice [2]; 100 µM i.n.)	thermal antiallodynic activity, ipsilateral side (SNI mice [2]; 200 µM i.n.)	thermal antiallodynic efficacy compared with SAHA + iBET762 combination (SNI mice [2]; [6])	preference between BRD4-BD1 and BRD4-BD2 domains ([3]; BRD4-BD1 vs BRD4-BD2)	IC50 ([3]; ligand Histone H4 peptide (1–21) K5/8/12/16Ac-Biotin, in comparison with (+)-JQ1, read-out: IC50 on BRD4-BD2) [nM]	mechanical antiallodynic activity, ipsilateral side (SNI mice [4]; 100 µM i.n.)	mechanical antiallodynic activity, ipsilateral side (SNI mice [4]; 200 µM i.n.)	mechanical antiallodynic efficacy compared with SAHA + iBET762 combination (SNI mice [4]; [6])	thermal antinociceptive effect (hot plate), whole dose range (naïve mice)	IC50 [5] [nM]
O=C(CCCCCCC(=O)Nc1ccccc1)NO [SAHA, suberoylanilide hydroxamic acid]	60											
CCNC(=O)C[C@@H]1N=C(c2ccc(Cl)cc2)c2cc(OC)ccc2-n2c(C)nnc21 [iBET762, (4S)-6-(4-Chlorophenyl)-N-ethyl-8-methoxy-1-methyl-4H-[1,2,4]triazolo[4,3,a][1,4] benzodiazepine-4-acetamide]	90											
Cc1nnc2n1-c1ccc(C#CCCCC(=O)NO)cc1C(c1ccccc1)=NC2 [SUM35, N-hydroxy-6-(1-methyl-6-phenyl-4H-benzo[f][1,2,4]triazolo[4,3-a][1,4]diazepin-8-yl)hex-5-ynamide]		Partial inhibition	reaching the statistical significance	did not produce any significant increase of pain threshold	lower antiallodynic activity	preferential interaction for BRD4-BD2	118	reaching the statistical significance	did not produce any significant increase of pain threshold	lower antiallodynic activity	did not produce any significant increase of the thermal pain threshold	1720
